The text below walks through data of ChEMBL document CHEMBL4725253, “Discovery of quinoline-based irreversible BTK inhibitors” (Bioorg Med Chem Lett, 2020).

Some results are limits rather than exact numbers.

A word on the IC50: it is the midpoint of a concentration-inhibition curve. By EC50 is commonly meant the concentration at which the effect is half-maximal. A low value points to higher potency in that assay.

The target in test [1] is Receptor tyrosine-protein kinase erbB-4 (Homo sapiens, UniProt Q15303). The experiment in a line: Inhibition of recombinant human N-terminal GST-tagged ERBB4 catalytic domain (708 to 993 residues) expressed in baculovirus expression system using tyrosine-1 peptide as substrate preincubated for 1 hr in presence of ATP by Z'-LYTE assay.
The target of test [2] is Receptor tyrosine-protein kinase erbB-2 (Homo sapiens, UniProt P04626). Nature of the test: Inhibition of His-tagged human recombinant ERBB2 (676 to 1255 residues) expressed in baculovirus expression system using Tyr 06 as substrate preincubated for 1 hr in presence of ATP by Z'-LYTE assay.
Test [3] deals with T1, Epidermal growth factor receptor (Homo sapiens, UniProt P00533). The experiment in a line: Inhibition of EGFR (unknown origin) expressed in baculovirus system using fluorescein labeled PDGFR-tide substrate peptide preincubated for 60 mins followed by ATP addition and measured after 60 mins by IMAP assay.
The target of test [4] is Tyrosine-protein kinase Blk (Homo sapiens, UniProt P51451). Nature of the test: Inhibition of recombinant full length human His-tagged BLK cytoplasmic domain expressed in baculovirus expression system using tyrosine-1 peptide as substrate preincubated for 1 hr in presence of ATP by Z'-LYTE assay.
Test [5] addresses T1, Epidermal growth factor receptor. The experiment in a line: Inhibition of recombinant human GST-tagged EGFR (668 to 1210 residues) expressed in baculovirus expression system using Tyr 04 peptide as substrate preincubated for 1 hr by Z'-LYTE assay.
The next test relates to Blood. The experiment in a line: Inhibition of mouse anti-human anti-IgD-stimulated CD69 cell surface expression in human whole blood preincubated for 2 hrs followed by anti-human anti-IgD stimulation for 18 hrs by flow cytometric analysis. The class given is functional, tissue-based. Background: Flow cytometry measures light scatter and fluorescence of single cells or particles in a stream.

The target of test [6] is T2, Tyrosine-protein kinase JAK3 (Homo sapiens, UniProt P52333).
T2 sequence (P52333 whole entry): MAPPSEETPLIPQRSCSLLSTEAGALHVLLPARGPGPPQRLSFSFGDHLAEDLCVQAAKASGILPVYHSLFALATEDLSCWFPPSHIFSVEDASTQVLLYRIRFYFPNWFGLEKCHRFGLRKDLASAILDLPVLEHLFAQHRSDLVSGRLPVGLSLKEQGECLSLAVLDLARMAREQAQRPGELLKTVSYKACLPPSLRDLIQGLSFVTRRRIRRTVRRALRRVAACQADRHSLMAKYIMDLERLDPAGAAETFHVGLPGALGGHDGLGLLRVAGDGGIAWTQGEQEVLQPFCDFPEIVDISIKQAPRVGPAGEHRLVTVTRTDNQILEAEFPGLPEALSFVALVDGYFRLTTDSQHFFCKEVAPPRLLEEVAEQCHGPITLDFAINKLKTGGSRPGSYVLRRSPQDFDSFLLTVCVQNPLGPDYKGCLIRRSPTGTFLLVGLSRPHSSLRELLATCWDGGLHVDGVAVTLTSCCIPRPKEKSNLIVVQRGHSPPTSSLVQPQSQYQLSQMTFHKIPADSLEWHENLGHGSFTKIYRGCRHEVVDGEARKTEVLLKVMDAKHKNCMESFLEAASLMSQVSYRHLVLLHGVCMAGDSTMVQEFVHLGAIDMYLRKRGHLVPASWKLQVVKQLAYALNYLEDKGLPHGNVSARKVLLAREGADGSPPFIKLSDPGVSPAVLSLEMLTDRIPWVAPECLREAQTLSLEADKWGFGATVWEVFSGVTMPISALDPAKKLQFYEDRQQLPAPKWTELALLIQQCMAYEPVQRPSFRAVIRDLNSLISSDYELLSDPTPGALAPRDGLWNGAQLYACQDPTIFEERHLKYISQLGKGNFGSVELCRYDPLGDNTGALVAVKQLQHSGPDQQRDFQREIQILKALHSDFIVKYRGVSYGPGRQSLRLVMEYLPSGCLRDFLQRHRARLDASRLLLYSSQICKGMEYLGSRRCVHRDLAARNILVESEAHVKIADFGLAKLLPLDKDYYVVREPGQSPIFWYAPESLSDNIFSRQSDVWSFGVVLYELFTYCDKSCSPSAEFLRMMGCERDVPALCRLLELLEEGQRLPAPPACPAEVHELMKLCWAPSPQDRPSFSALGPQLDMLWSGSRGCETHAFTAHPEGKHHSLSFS
Nature of the test: Inhibition of recombinant human GST-tagged JAK3 catalytic domain (781 to 1124 residues) expressed in baculovirus expression system using tyrosine-6 peptide as substrate preincubated for 1 hr in presence of ATP by Z'-LYTE assay.

The target in test [7] is T3, Tyrosine-protein kinase ITK/TSK (Homo sapiens, UniProt Q08881).
T3 sequence (Q08881 whole entry): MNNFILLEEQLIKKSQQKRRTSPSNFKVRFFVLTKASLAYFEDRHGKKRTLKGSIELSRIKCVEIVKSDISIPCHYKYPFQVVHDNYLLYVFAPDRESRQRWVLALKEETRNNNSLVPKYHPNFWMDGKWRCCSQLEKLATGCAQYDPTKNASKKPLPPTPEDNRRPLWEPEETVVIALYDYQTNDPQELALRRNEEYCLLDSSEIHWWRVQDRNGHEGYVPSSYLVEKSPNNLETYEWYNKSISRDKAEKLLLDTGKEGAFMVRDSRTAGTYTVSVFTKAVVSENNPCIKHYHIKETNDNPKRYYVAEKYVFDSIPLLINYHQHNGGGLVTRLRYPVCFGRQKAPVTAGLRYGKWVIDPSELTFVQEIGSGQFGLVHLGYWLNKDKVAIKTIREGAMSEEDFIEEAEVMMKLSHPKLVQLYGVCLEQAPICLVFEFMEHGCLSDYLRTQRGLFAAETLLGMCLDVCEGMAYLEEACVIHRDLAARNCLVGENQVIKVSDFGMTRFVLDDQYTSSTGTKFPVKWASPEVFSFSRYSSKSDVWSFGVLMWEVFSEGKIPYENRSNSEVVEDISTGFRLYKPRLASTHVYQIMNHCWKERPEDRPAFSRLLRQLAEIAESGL
The experiment in a line: Inhibition of recombinant full length human GST-tagged ITK expressed in baculovirus expression system using tyrosine-1 peptide as substrate preincubated for 1 hr in presence of ATP by Z'-LYTE assay.

Test [8] can be described thus: Inhibition of goat anti-human IgM F(ab')-stimulated CD69 cell surface expression in human PBMC preincubated for 2 hrs followed by anti-human IgM stimulation for 18 hrs by flow cytometric analysis. The format is functional, tissue-based.

Sequence of Receptor tyrosine-protein kinase erbB-4 (Q15303 whole entry, the tested form may be a part): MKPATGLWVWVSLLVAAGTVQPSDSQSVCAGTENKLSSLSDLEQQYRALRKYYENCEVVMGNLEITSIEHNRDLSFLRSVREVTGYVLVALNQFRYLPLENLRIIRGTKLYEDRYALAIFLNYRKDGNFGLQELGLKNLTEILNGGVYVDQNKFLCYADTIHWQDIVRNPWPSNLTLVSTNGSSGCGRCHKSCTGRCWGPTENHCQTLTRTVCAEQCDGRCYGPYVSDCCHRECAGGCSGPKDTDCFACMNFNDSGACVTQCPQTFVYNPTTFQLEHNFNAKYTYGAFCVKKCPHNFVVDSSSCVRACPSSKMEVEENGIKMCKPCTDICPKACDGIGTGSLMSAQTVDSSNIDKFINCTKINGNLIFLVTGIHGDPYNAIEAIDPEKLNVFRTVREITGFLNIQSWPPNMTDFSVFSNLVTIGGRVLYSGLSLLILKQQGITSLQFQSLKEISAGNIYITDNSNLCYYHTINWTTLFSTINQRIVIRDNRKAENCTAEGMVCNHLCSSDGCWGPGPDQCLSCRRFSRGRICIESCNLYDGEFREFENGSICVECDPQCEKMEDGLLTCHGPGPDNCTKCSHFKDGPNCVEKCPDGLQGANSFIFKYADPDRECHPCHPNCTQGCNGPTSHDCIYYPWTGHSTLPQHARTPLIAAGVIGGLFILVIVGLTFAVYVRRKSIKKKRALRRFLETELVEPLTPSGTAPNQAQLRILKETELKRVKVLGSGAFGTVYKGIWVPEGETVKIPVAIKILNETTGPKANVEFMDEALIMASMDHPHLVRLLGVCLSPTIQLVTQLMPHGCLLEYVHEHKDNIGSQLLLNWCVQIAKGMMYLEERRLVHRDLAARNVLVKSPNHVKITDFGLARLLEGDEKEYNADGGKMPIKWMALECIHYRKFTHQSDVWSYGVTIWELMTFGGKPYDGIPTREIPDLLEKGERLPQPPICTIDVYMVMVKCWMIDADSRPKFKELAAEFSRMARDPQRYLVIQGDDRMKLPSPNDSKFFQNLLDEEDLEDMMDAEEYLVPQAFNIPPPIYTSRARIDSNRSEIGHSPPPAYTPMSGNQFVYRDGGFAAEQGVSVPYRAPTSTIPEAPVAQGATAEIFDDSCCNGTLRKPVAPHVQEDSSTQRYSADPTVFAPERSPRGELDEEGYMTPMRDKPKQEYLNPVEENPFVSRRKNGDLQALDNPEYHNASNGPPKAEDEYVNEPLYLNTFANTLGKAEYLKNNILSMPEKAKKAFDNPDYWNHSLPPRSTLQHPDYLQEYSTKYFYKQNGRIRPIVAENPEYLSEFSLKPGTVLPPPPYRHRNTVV
T1 sequence (P00533 whole entry, the tested form may be a part): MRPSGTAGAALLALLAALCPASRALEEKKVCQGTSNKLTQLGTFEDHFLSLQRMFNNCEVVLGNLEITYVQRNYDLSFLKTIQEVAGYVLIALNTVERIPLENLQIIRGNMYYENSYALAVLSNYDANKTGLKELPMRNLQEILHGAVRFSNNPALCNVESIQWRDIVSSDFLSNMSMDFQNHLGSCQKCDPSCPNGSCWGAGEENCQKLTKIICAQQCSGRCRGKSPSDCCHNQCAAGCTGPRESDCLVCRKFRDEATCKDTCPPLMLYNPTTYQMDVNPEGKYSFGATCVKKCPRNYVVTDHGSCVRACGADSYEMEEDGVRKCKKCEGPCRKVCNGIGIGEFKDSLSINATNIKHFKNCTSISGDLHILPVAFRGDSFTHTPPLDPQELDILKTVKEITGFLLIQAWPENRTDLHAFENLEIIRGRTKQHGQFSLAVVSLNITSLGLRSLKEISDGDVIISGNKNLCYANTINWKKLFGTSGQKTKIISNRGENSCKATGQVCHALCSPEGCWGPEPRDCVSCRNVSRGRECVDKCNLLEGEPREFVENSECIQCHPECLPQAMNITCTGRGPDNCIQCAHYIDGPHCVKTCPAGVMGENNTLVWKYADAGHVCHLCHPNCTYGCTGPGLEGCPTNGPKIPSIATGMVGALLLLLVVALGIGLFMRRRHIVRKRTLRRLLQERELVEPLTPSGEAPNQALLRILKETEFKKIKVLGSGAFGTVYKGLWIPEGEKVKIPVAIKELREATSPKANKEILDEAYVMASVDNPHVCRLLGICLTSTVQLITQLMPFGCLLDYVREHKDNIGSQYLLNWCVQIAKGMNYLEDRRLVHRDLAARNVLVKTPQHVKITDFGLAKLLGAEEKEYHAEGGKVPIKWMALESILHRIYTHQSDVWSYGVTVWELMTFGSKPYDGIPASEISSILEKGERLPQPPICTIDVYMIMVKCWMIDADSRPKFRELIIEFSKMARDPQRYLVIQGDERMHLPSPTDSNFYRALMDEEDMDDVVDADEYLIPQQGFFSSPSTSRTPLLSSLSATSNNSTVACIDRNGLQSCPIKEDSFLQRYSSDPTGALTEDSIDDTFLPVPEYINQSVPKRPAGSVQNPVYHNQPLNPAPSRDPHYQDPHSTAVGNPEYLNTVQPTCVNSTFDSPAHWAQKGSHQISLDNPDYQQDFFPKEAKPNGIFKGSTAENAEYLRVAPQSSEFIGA
Sequence of Receptor tyrosine-protein kinase erbB-2 (P04626 whole entry, the tested form may be a part): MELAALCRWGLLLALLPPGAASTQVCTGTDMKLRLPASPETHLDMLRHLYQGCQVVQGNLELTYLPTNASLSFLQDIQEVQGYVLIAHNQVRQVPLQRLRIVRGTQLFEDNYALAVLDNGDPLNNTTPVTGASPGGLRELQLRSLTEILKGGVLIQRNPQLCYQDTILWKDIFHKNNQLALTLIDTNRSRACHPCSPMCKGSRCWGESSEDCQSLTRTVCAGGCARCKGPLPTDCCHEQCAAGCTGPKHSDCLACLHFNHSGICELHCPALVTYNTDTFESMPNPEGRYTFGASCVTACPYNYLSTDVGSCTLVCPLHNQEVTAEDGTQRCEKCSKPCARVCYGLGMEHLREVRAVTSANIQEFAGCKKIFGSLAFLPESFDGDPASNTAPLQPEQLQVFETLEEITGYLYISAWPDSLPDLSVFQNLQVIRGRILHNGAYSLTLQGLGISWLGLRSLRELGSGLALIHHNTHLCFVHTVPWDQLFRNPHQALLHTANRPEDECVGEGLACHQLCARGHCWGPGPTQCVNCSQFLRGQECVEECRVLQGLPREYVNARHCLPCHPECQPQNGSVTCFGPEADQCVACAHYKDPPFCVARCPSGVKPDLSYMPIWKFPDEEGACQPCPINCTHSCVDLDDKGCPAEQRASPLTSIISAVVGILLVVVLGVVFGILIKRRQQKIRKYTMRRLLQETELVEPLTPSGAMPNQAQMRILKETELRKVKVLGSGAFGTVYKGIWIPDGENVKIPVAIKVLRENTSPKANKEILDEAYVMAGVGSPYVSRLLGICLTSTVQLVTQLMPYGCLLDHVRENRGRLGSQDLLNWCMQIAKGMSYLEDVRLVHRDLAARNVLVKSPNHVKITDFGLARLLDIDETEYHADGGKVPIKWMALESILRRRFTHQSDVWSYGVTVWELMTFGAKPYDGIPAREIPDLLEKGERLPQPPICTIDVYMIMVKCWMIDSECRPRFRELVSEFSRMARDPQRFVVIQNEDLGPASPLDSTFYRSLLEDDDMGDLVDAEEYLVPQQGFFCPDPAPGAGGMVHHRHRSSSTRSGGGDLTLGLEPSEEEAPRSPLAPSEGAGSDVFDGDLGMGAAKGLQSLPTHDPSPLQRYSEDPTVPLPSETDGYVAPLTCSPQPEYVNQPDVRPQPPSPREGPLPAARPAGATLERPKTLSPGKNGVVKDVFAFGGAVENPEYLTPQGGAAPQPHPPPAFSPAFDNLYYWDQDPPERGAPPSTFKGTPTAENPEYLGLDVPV
Sequence of Tyrosine-protein kinase Blk (P51451 whole entry, the tested form may be a part): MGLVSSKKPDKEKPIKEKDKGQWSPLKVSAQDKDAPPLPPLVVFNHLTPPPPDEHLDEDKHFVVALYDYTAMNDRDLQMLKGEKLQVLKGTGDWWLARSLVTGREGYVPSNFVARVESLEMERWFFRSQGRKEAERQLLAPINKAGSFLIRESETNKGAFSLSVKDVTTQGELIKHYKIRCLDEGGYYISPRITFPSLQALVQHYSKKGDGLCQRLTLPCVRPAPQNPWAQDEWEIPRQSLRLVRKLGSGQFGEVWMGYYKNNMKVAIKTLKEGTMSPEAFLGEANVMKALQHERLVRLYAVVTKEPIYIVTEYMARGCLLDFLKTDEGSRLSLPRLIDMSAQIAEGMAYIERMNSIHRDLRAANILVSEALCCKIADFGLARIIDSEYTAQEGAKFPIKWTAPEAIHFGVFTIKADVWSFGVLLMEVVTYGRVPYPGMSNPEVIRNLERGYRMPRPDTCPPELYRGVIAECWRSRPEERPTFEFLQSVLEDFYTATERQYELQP

Take `C=CC(=O)Nc1ccc2nccc(Oc3ccc(C(=O)Nc4cc(CC)ccn4)cc3)c2c1`: the IC50 in test [1] turned out to be 0.016 µM; in test [2], 0.268 µM; in [3], 0.2 µM; in test [4], 0.0212 µM; in [5], 0.958 µM; in test [6], 0.838 µM. Also, the IC50 in test [7] is greater than 1 µM. The EC50 in the test on Blood worked out at 0.167 µM; in test [8], 0.015 µM.
Regarding `CC#CC(=O)Nc1cc2c(Oc3ccc(C(=O)Nc4ccccn4)cc3)ccnc2cc1OCCN1CCOCC1`, the IC50 in test [1] was 0.037 µM; in test [2], greater than 1 µM; in test [3] it was greater than 1 µM; in [4], 0.072 µM; in [5], greater than 1 µM; in test [6] it was greater than 1 µM. Moreover, in test [7], the IC50 was greater than 1 µM. Further, the EC50 was 0.074 µM in the test with Blood and 0.0041 µM in test [8].
Take `COc1cc2nccc(Oc3ccc(C(=O)Nc4ccccn4)cc3)c2cc1NC(=O)C#CCCN1CCOCC1`: the IC50 in [1] was 0.901 µM; in [2], 0.041 µM; in test [3], 0.033 µM; in test [4] it was 0.0083 µM; in [5], 0.138 µM; in [6], 0.174 µM. For the same compound, the IC50 in test [7] was 0.916 µM. Moreover, the EC50 in the test on Blood was found to be 0.013 µM; in test [8], 0.0018 µM.
